The values that follow come from patent US9914732B2, “Diazabicyclo[4.3.1]decane derivatives for treatment of psychiatric disorders” (Max-Planck-Gesellschaft zur Forderung der Wissenschaften …, priority 2014, dated 2018).

The target of one experiment is T1, FKBP51 (Homo sapiens, UniProt Q13451).
T1 sequence (Q13451 42-130 limits assumed): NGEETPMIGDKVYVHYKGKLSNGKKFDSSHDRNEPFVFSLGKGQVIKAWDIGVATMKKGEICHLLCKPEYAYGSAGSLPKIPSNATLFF
Description: Fluorescence polarization (FP) assay, binding to the FK506-binding domain of FKBP51. To be noted: FK506-binding domain of FKBP51 (FKBP51FK1), competition with fluorescent ligand 2b. The protocol:
(§1) In the present invention, in vitro fluorescence polarization assays with the compounds of the general formula (I) were performed to determine the binding affinities to FKBP51 and FKBP52 or to the isolated FK506-binding domains of FKBP51 and FKBP52 ([…]). Binding to the isolated FK506-binding domains is reliably indicative of binding to the full length proteins. The affinities for the isolated FK506-binding domains and for full-length FKBP51 or FKBP52 are the same for all compounds tested so far (Kozany et al, ChemBioChem 2009, 10, 1402-1410).
(§2) Example 11: Fluorescence Polarization (FP) Assays
(§3) In-vitro fluorescence polarization assays were performed to determine the binding affinities for FKBP51 and 52 according to a literature procedure (Kozany, C.; Marz, A.; Kress, C.; Hausch, F., Fluorescent probes to characterise FK506-binding proteins. Chembiochem 2009, 10, (8), 1402-10).
(§4) For fluorescence polarization assays the fluorescent ligand 2b was dissolved in HEPES (20 mm, pH 8), Triton-X100 (0.01%), at double the concentration required for the final sample. The target protein was also diluted in this assay buffer at double the highest concentration required for the final sample. This protein stock was used for a 1:1 serial dilution.
(§5) The fluorescent ligand 2b was diluted in assay buffer to a concentration double the final concentration (20 nM 2b). The inventive compound was dissolved in DMSO to reach a 100-times concentrated stock solution. This was used for a 1:1 serial dilution in DMSO. Every sample of this serial dilution was diluted by a factor of 50 in assay buffer supplemented with ligand 2b to achieve a 2× concentrated mixture of ligand 2b and the inventive compound. To this competitive ligand double the protein concentration for 2b assay: FKBP51FK1 560 nM (2×280 nM) or FKBP52FK1 800 nM (2×400 nM) diluted in assay buffer was added.
(§6) The samples were transferred to black 384-well assay plates (No.: 3575; Corning Life Sciences). After incubation at room temperature for 30 min the fluorescence anisotropy was measured (GENios Pro, Tecan, Männedorf, Switzerland) by using an excitation filters of 485/20 nm and emission filters of 535/25 nm. The binding assays were performed in duplicates in the plate format.
(§7) The competition curves were analyzed by using SigmaPlot9. Data were fitted to a four parameter logistic curve to deduce the IC50 values. For the analysis of K1 values, data were fitted to the following equation (Z. X. Wang, FEBS Lett. 1995, 360, 111-114). A=(Amax−Amin)/[L]t×(([L]t×((2×((Klig+Kcomp+[L]t+[I]t−[R]t)^2−3×(Kcomp×([L]t−[R]t)+Klig×([I]t−[R]t)+[…]))^0.5×COS(ARCCOS((−2×(Klig+Kcomp+[L]t+[I]t−[R]t)^3+9×(Klig+Kcomp+[L]t+[I]t−[R]t)×(Kcomp×([L]t−[R]t)+Klig×([I]t−[R]t)+Klig×Kcomp)−27×(−1×Klig×Kcomp×[R]t))/(2×((((Klig+Kcomp+[L]t+[I]t−[R]t)^2−3×(Kcomp×([L]t−[R]t)+Klig×([I]t−[R]t)+Klig×Kcomp))^3)^0.5)))/3))−(Klig+Kcomp+[L]t+[I]t−[R]t)))/((3×Klig)+((2×((Klig+Kcomp+[L]t+[I]t−[R]t)^2−3×(Kcomp×([L]t−[R]t)+Klig×([I]t−[R]t)+Klig×Kcomp))^0.5×COS(ARCCOS((−2×(Klig+Kcomp+[L]t+[I]t−[R]t)^3+9×(Klig+Kcomp+[L]t+[I]t−[R]t)×(Kcomp×([L]t−[R]t)+Klig×([I]t−[R]t)+Klig×Kcomp)−27×(−1×Klig×Kcomp×[R]t))/(2×((((Klig+Kcomp+[L]t+[I]t−[R]t)^2−3×(Kcomp×([L]t−[R]t)+Klig×([I]t−[R]t)+Klig×Kcomp))^3)^0.5)))/3))−(Klig+Kcomp+[L]t+[I]t−[R]t)))+Amin
(§8) In this equation Klig and Kcomp stand for the Kd values of the used tracer or competing inhibitor, [I]t is referring to the total concentration of the titrated inhibitor.

A further experiment addresses T2, FKBP52 (Homo sapiens, UniProt Q02790).
T2 sequence (Q02790 50-138 limits assumed): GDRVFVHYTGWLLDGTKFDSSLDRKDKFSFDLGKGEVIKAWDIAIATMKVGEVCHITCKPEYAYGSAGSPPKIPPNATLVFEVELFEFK
The experiment is described as follows: Fluorescence polarization (FP) assay, binding to the FK506-binding domain of FKBP52. To be noted: FK506-binding domain of FKBP52 (FKBP52FK1), competition with fluorescent ligand 2b. Here is the method:
as §1, §2, §3, §4, §5, §6, §7, §8
For orientation: Fluorescence polarisation rises when a labelled molecule tumbles more slowly, as on binding a larger partner.

Structures are written as SMILES.

As a reminder, the Ki is the dissociation constant of the complex between target and ligand, obtained from inhibition or displacement. Read a high Ki as a looser hold on the target. With `COC[C@H]1CN(Cc2cnn[nH]2)C(=O)[C@@H]2CCC[C@H]1N2S(=O)(=O)c1cccc(C(N)=O)c1` [Compound N19, 3-(((1S,5S,6R)-3-((1H-1,2,3-triazol-5-yl)methyl)-5-(methoxymethyl)-2-oxo-3,10-diazabicyclo[4.3.1]decan-10-yl)sulfonyl)benzamide], the Ki on FKBP51 and at FKBP52 was not above 100 nM in each case.

As for `COc1ccc(OCCN2CCC3CCCC(C2=O)N3S(=O)(=O)c2ccc3ncsc3c2)cc1OC` (centres unmarked) [Ref. 2, reference compound], the Ki on FKBP51 and at FKBP52 was 1000 to 5000 nM each time.

For `COC[C@H]1CN(Cc2cnn[nH]2)C(=O)[C@@H]2CCC[C@H]1N2S(=O)(=O)c1nc2ccccc2[nH]1` [Compound N28, (1S,5S,6R)-3-((1H-1,2,3-triazol-5-yl)methyl)-10-((1H-benzo[d]imidazol-2-yl)sulfonyl)-5-(methoxymethyl)-3,10-diazabicyclo[4.3.1]decan-2-one], the Ki on FKBP51 and at FKBP52 was not above 100 nM each time.

On to `C=CC1CN(CCNC)C(=O)C2CCCC1N2S(=O)(=O)c1cc(Cl)cc(Cl)c1` (stereo in doubt) [Compound J19, (1S,5R,6R)-10-((3,5-dichlorophenyl)sulfonyl)-3-(2-(methylamino)ethyl)-5-vinyl-3,10-diazabicyclo[4.3.1]decan-2-one], for which the Ki on FKBP51 and at FKBP52 was 100 to 500 nM each time.

Regarding `COc1ccc(OCCN2C[C@H]([C@H](O)CO)C3CCCC(C2=O)N3S(=O)(=O)c2cc(Cl)cc(Cl)c2)cc1OC` (stereo partly drawn) [C2(C2a/b), (1S,5S,6R)-10-((3,5-dichlorophenyl)sulfonyl)-5-(1,2-dihydroxyethyl)-3-(2-(3,4-dimethoxyphenoxy)ethyl)-3, 10-diazabicyclo[4.3.1]decan-2-one], the Ki on FKBP51 and at FKBP52 was not above 100 nM each time.

As for `C=C[C@@H]1CN(Cc2ccco2)C(=O)[C@@H]2CCC[C@H]1N2S(=O)(=O)c1cc(Cl)cc(Cl)c1` [Compound J17, (1S,5R,6R)-10-((3,5-dichlorophenyl)sulfonyl)-3-(furan-2-ylmethyl)-5-vinyl-3,10-diazabicyclo[4.3.1]decan-2-one], the Ki at FKBP51 and on FKBP52 was 1000 to 5000 nM each time.

Consider `O=C1[C@@H]2CCC[C@H]([C@H](CO)CN1Cc1ccccn1)N2S(=O)(=O)c1cc(Cl)cc(Cl)c1` [Compound J8, (1S,5R,6R)-10-((3,5-dichlorophenyl)sulfonyl)-5-(hydroxymethyl)-3-(pyridin-2-ylmethyl)-3,10-diazabicyclo[4.3.1]decan-2-one], for which the Ki at FKBP51 and at FKBP52 was not above 100 nM in each case.

With `COC[C@H]1CN(Cc2cnn[nH]2)C(=O)[C@@H]2CCC[C@H]1N2S(=O)(=O)c1ccc(-c2ccccc2)nc1` [Compound N26, (1S,5S,6R)-3-((1H-1,2,3-triazol-5-yl)methyl)-5-(methoxymethyl)-10-((6-phenylpyridin-3-yl)sulfonyl)-3,10-diazabicyclo[4.3.1]decan-2-one], the Ki at FKBP51 and at FKBP52 was not above 100 nM in each case.

As to `C#CCN1C[C@H](COC)[C@H]2CCC[C@@H](C1=O)N2S(=O)(=O)c1cccc(C(=O)OC)c1` [Compound N10, methyl 3-(((1S,5S,6R)-5-(methoxymethyl)-2-oxo-3-(prop-2-yn-1-yl)-3,10-diazabicyclo[4.3.1]decan-10-yl)sulfonyl)benzoate], the Ki on FKBP51 and at FKBP52 was 100 to 500 nM in each case.

`COc1ccc(OCCN2C[C@H](C(C)(C)O)[C@H]3CCC[C@@H](C2=O)N3S(=O)(=O)c2cc(Cl)cc(Cl)c2)cc1OC` [Compound D3, (1S,5S,6R)-10-((3,5-dichlorophenyl)sulfonyl)-3-(2-(3,4-dimethoxyphenoxy)ethyl)-5-(2-hydroxypropan-2-yl)-3,10-diazabicyclo[4.3.1]decan-2-one]: the Ki on FKBP51 and at FKBP52 was not above 100 nM in each case.

Turning to `O=C1NC[C@@H](O)[C@H]2CCC[C@@H]1N2S(=O)(=O)c1cc(Cl)cc(Cl)c1` [Compound H1.4, (1S,5R,6R)-10-((3,5-dichlorophenyl)sulfonyl)-5-hydroxy-3,10-diazabicyclo[4.3.1]decan-2-one], the Ki at FKBP51 and on FKBP52 was 1000 to 5000 nM throughout.

As to `COCCCN1CC(CO)C2CCCC(C1=O)N2S(=O)(=O)c1cc(Cl)cc(Cl)c1` (stereo in doubt) [Compound J6, (1S,5R,6R)-10-((3,5-dichlorophenyl)sulfonyl)-5-(hydroxymethyl)-3-(3-methoxypropyl)-3,10-diazabicyclo[4.3.1]decan-2-one], the Ki lay within 100 to 500 nM at FKBP51 and 500 to 1000 nM on FKBP52.

As for `COC[C@H]1CN(Cc2cnn[nH]2)C(=O)[C@@H]2CCC[C@H]1N2S(=O)(=O)c1cc(Br)cc(Br)c1` [Compound N18, (1S,5S,6R)-3-((1H-1,2,3-triazol-5-yl)methyl)-10-((3,5-dibromophenyl)sulfonyl)-5-(methoxymethyl)-3,10-diazabicyclo[4.3.1]decan-2-one], the Ki on FKBP51 and at FKBP52 was not above 100 nM throughout.

With `N[C@@H]1CNC(=O)[C@@H]2CCC[C@H]1N2S(=O)(=O)c1cc(Cl)cc(Cl)c1` [Compound H1.2, (1S,5R,6R)-5-amino-10-((3,5-dichlorophenyl)sulfonyl)-3,10-diazabicyclo[4.3.1]decan-2-one], the Ki at FKBP51 and at FKBP52 was 1000 to 5000 nM in each case.

As to `O=C1NCCC2CCCC1N2S(=O)(=O)c1ccc2sc(=O)[nH]c2c1` (centres unmarked) [Ref. 4, reference compound], the inhibitory constant (Ki) on FKBP51 and on FKBP52 was more than 5000 nM in each case.

As to `CN(C)C[C@H]1CN(Cc2ccccn2)C(=O)[C@@H]2CCC[C@H]1N2S(=O)(=O)c1cc(Cl)cc(Cl)c1` [Compound M2, (1S,5S,6R)-10-((3,5-dichlorophenyl)sulfonyl)-5-((dimethylamino)methyl)-3-(pyridin-2-ylmethyl)-3,10-diazabicyclo[4.3.1]decan-2-one], the Ki at FKBP51 and on FKBP52 was not above 100 nM each time.

As for `COc1ccc(OCCN2CCC3CCCC(C2=O)N3S(=O)(=O)c2cc(Cl)c(O)c(Cl)c2)cc1OC` (centres unmarked) [Ref. 3, reference compound], the Ki on FKBP51 and at FKBP52 was 1000 to 5000 nM in each case.

For `C=C[C@@H]1CN(Cc2ccccn2)C(=O)[C@@H]2CCC[C@H]1N2S(=O)(=O)c1cc(Cl)c(NC(C)=O)c(Cl)c1` [Compound K22, N-(2,6-dichloro-4-(((1S,5R,6R)-2-oxo-3-(pyridin-2-ylmethyl)-5-vinyl-3,10-diazabicyclo[4.3.1]decan-10-yl)sulfonyl)phenyl)acetamide], the Ki at FKBP51 and at FKBP52 was not above 100 nM in each case.

`C=CC1CN(Cc2ccccn2)C(=O)C2CCCC1N2S(=O)(=O)c1cccnc1` (stereo in doubt) [Compound K26, (1S,5R,6R)-3-(pyridin-2-ylmethyl)-10-(pyridin-3-ylsulfonyl)-5-vinyl-3,10-diazabicyclo[4.3.1]decan-2-one]: the Ki on FKBP51 and on FKBP52 was 100 to 500 nM throughout.
